Reference: ChEMBL document CHEMBL5143522, “Discovery of novel 6-hydroxybenzothiazole urea derivatives as dual Dyrk1A/α-synuclein aggregation inhibitors with neuroprotective effects” (Eur J Med Chem, 2022)
Calls of active or inactive are those of the source. The calls are words filed in the database; no cut-off is given here.

Tests used:
[1] = molecular target: Dual specificity tyrosine-phosphorylation-regulated kinase 1B (Homo sapiens) (UniProt Q9Y463); test: Inhibition of human recombinant DYRK1B at 1 uM using KKISGRLSPIMTEQ as substrate incubated in presence of ATP relative to control
[2] = molecular target: Serine/threonine-protein kinase pim-1 (Homo sapiens) (UniProt P11309); test: Inhibition of PIM1 (unknown origin) at 1 uM incubated in presence of ATP by Selectscreen kinase assay relative to control
[3] = molecular target: Glycogen synthase kinase-3 beta (Homo sapiens) (UniProt P49841); test: Inhibition of GSK3beta (unknown origin) at 1 uM incubated in presence of ATP by Selectscreen kinase assay relative to control
[4] = molecular target: Cyclin-dependent kinase 5/CDK5 activator 1 (Homo sapiens) (UniProt Q00535+Q15078); test: Inhibition of CDK5/p25 (unknown origin) at 1 uM by Selectscreen kinase assay relative to control; type: protein-complex assay
[5] = Permeability of the compound in PBS/EtOH buffer (7:3) incubated for 16 hrs by PAMPA-BBB assay
[6] = molecular target: T1, Dual specificity tyrosine-phosphorylation-regulated kinase 1A (Homo sapiens, UniProt Q13627); conditions: dose 250.0 nM
[7] = molecular target: T1, Dual specificity tyrosine-phosphorylation-regulated kinase 1A; test: Inhibition of DYRK1A in human HeLa cells transiently expressing GFP-SF3B1 fusion protein assessed as reduction in SF3B1 phosphorylation incubated for 24 hrs by immunoblot analysis; type: cell-based
[8] = molecular target: T1, Dual specificity tyrosine-phosphorylation-regulated kinase 1A; test: Binding affinity to C-terminal HiBiT-tagged human DYRK1A (28 to 499 residues) stably expressed in HEK293 cells assessed as thermal stability by measuring increase in DYRK1A in soluble fraction at 10 to 30 uM incubated for 3.5 mins by ITDRF-CETSA analysis; type: cell-based; conditions: dose 10-30 µM
[9] = molecular target: T2, Dual specificity tyrosine-phosphorylation-regulated kinase 2 (Homo sapiens) (UniProt Q92630); test: Inhibition of DYRK2 (unknown origin) at 1 uM incubated in presence of ATP by Selectscreen kinase assay relative to control
T2 sequence (whole entry): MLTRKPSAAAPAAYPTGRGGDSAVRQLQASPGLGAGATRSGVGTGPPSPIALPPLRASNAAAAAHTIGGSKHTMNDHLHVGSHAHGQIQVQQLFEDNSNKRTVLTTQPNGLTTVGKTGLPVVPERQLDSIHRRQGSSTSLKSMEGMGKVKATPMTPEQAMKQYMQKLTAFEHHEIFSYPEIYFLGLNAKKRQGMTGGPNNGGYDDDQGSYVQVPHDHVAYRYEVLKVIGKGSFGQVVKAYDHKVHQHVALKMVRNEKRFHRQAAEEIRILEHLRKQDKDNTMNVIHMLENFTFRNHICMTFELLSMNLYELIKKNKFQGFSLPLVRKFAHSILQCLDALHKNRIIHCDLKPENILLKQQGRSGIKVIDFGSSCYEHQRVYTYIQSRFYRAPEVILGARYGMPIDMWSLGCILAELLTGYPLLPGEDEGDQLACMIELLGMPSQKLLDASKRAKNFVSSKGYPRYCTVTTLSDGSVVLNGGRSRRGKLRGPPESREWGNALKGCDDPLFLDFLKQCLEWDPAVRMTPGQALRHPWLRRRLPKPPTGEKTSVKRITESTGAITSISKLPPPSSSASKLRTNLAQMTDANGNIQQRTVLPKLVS

[10] = molecular target: SRSF protein kinase 1 (Homo sapiens) (UniProt Q96SB4); test: Inhibition of SRPK1 (unknown origin) at 1 uM incubated in presence of ATP by Selectscreen kinase assay relative to control
[11] = molecular target: T1, Dual specificity tyrosine-phosphorylation-regulated kinase 1A; test: Inhibition of human N-terminal His6-tagged DYRK1A expressed in Escherichia coli BL21 (DE3) using KKISGRLSPIMTEQ as substrate incubated in presence of ATP
[12] = molecular target: Dual specificity protein kinase CLK1 (Homo sapiens) (UniProt P49759); test: Inhibition of GST-tagged human recombinant CLK1 (129 to 484 residues) expressed in Escherichia coli at 1 uM using GRSRSRSRSRSRSRSR as substrate incubated in presence of ATP by Selectscreen kinase assay relative to control
[13] = molecular target: Casein kinase I isoform delta (Homo sapiens) (UniProt P48730); test: Inhibition of CSNK1D (unknown origin) at 1 uM incubated in presence of ATP by Selectscreen kinase assay relative to control
[14] = molecular target: T3, Serine/threonine-protein kinase 17A (Homo sapiens) (UniProt Q9UEE5); test: Inhibition of STK17A (unknown origin) at 1 uM incubated in presence of ATP by Selectscreen kinase assay relative to control
T3 sequence (whole entry): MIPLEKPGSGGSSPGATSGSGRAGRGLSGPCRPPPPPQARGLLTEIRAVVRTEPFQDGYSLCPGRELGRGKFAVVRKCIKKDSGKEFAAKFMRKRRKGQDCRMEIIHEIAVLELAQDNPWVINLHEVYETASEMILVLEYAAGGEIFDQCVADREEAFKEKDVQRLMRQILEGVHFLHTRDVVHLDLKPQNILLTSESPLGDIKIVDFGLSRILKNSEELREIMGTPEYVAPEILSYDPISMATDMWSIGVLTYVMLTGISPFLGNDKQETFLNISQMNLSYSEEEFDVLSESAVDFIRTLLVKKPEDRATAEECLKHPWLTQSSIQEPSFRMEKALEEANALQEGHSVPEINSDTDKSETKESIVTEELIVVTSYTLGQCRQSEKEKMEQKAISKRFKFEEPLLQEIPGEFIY

[15] = molecular target: T4, Dual specificity tyrosine-phosphorylation-regulated kinase 2 (Homo sapiens, UniProt Q92630); test: Inhibition of Dyrk2 (unknown origin)
T4 sequence (Q92630 whole entry): T2 sequence (whole entry)

[16] = molecular target: T1, Dual specificity tyrosine-phosphorylation-regulated kinase 1A; test: Inhibition of human Dyrk1A
[17] = system: SH-SY5Y; test: Neuroprotective activity against 6-OHDA induced cytotoxicity against human SH-SY5Y cells assessed as increase in cell viability at 10 uM by MTT assay; type: functional, cell-based
[18] = molecular target: Myosin light chain kinase 2, skeletal/cardiac muscle (Homo sapiens) (UniProt Q9H1R3); test: Inhibition of MLCK2 (unknown origin) at 1 uM incubated in presence of ATP by Selectscreen kinase assay relative to control
[19] = molecular target: Homeodomain-interacting protein kinase 1 (Homo sapiens) (UniProt Q86Z02); test: Inhibition of HIPK1 (unknown origin) at 1 uM incubated in presence of ATP by Selectscreen kinase assay relative to control
[20] = molecular target: T5, Serine/threonine-protein kinase haspin (Homo sapiens) (UniProt Q8TF76); test: Inhibition of GSG2 (unknown origin) at 1 uM incubated in presence of ATP by Selectscreen kinase assay relative to control
T5 sequence (whole entry): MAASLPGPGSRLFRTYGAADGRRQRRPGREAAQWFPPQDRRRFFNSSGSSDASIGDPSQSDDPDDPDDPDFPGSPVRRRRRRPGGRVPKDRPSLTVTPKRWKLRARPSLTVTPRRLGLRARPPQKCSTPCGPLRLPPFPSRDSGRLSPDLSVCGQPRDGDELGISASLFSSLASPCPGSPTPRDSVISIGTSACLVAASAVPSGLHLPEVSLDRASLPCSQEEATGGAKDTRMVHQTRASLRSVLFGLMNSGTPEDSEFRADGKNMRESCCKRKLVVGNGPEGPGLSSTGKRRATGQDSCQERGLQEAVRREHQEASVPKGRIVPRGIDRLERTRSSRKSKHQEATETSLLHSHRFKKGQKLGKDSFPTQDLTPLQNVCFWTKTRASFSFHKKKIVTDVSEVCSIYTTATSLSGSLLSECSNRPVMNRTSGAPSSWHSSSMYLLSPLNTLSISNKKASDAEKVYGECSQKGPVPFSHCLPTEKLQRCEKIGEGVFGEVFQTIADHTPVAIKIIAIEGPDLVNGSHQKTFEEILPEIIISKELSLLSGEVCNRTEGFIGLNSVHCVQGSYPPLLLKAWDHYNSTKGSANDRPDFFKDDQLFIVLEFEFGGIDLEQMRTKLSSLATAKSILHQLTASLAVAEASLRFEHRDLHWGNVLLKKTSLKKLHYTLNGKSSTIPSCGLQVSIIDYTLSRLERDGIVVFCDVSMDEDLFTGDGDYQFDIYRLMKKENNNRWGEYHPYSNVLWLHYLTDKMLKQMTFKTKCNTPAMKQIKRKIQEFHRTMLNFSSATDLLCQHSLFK

[21] = system: SH-SY5Y; test: Neuroprotective activity against alpha-syn induced cytotoxicity against human SH-SY5Y cells assessed as increase in cell viability at 10 uM by MTT assay; type: functional, cell-based

Dual specificity tyrosine-phosphorylation-regulated kinase 1B (Homo sapiens), sequence (Q9Y463 whole entry, looked up): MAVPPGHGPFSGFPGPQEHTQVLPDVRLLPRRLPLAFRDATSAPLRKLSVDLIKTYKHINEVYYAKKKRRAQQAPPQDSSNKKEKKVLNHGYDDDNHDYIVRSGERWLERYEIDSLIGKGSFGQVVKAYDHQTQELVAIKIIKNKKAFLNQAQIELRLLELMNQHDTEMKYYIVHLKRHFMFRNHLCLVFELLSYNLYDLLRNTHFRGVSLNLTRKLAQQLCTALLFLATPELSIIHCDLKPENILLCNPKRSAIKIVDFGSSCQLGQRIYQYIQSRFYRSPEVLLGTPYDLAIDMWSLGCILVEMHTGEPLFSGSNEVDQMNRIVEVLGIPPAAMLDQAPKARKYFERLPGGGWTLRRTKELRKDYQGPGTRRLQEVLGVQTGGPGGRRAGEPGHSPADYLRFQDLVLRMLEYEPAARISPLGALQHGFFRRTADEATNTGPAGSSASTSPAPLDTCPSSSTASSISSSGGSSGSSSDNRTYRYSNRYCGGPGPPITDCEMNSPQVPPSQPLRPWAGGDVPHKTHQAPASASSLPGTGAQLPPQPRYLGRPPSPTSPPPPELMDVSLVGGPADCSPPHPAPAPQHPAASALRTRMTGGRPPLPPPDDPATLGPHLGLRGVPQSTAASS
Casein kinase I isoform delta (Homo sapiens), sequence (P48730 whole entry, looked up, canonical isoform): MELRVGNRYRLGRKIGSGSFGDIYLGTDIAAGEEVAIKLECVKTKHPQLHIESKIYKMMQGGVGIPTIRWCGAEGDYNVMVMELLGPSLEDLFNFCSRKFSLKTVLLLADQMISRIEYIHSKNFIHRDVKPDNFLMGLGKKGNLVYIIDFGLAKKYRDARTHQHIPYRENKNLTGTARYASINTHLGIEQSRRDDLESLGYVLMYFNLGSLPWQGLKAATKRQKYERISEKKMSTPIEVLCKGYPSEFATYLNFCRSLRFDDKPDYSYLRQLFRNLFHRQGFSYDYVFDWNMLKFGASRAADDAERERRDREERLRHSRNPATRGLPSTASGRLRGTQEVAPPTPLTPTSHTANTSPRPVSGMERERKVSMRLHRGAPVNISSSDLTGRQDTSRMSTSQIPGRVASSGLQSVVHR
Glycogen synthase kinase-3 beta (Homo sapiens), sequence (P49841 whole entry, looked up): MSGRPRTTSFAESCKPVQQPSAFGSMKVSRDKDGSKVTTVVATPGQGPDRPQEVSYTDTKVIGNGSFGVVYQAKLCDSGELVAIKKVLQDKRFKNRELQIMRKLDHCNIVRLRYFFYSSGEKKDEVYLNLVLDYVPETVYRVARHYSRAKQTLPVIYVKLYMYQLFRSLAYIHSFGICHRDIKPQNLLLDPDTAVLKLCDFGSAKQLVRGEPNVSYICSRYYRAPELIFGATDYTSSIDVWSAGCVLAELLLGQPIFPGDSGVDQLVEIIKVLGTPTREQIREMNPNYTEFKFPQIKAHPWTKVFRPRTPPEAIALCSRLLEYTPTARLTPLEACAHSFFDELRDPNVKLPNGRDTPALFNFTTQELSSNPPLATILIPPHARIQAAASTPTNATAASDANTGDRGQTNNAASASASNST
Cyclin-dependent kinase 5/CDK5 activator 1 (Homo sapiens), sequence (Q00535 whole entry): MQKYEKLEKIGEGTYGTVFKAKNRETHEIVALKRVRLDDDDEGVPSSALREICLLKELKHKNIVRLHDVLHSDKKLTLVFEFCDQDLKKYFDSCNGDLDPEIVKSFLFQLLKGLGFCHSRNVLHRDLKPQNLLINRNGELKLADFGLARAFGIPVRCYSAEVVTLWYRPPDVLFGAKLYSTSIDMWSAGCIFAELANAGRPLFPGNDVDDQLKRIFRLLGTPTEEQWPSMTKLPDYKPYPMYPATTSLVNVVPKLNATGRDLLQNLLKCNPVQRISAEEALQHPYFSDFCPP
Cyclin-dependent kinase 5/CDK5 activator 1 (Homo sapiens), sequence (Q15078 99-307 partner limits assumed): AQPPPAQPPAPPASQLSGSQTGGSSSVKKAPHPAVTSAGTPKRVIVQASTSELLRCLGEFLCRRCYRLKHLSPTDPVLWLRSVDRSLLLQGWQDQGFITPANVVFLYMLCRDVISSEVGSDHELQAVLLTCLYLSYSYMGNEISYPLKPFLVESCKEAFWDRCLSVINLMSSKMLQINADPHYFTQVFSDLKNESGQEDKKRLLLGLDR
Serine/threonine-protein kinase pim-1 (Homo sapiens), sequence (P11309 whole entry, looked up): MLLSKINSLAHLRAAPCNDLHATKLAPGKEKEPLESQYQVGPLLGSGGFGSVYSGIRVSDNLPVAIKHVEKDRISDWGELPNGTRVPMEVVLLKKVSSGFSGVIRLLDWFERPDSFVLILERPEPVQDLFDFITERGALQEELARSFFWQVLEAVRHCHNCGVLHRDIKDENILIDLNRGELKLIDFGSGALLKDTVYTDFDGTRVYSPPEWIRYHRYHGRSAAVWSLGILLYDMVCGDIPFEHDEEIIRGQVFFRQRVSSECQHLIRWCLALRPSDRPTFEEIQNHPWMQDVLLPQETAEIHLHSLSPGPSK
SRSF protein kinase 1 (Homo sapiens), sequence (Q96SB4 whole entry): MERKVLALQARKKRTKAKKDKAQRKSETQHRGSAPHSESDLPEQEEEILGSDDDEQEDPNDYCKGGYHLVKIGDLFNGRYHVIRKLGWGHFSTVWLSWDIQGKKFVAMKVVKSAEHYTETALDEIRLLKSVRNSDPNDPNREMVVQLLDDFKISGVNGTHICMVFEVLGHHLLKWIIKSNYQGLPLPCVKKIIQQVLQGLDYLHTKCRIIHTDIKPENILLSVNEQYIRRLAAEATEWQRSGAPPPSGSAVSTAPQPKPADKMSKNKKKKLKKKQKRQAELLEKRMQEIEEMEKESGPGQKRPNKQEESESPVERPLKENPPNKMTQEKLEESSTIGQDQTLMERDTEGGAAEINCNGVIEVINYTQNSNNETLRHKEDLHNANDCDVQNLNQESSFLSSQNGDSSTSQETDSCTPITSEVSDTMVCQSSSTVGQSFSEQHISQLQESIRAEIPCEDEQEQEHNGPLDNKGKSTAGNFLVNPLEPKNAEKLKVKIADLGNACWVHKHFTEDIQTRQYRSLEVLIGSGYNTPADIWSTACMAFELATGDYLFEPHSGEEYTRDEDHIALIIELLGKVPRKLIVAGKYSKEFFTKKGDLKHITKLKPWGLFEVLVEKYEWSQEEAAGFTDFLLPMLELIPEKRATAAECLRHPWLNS
Dual specificity protein kinase CLK1 (Homo sapiens), sequence (P49759 whole entry, looked up, the tested form may be a part, canonical isoform): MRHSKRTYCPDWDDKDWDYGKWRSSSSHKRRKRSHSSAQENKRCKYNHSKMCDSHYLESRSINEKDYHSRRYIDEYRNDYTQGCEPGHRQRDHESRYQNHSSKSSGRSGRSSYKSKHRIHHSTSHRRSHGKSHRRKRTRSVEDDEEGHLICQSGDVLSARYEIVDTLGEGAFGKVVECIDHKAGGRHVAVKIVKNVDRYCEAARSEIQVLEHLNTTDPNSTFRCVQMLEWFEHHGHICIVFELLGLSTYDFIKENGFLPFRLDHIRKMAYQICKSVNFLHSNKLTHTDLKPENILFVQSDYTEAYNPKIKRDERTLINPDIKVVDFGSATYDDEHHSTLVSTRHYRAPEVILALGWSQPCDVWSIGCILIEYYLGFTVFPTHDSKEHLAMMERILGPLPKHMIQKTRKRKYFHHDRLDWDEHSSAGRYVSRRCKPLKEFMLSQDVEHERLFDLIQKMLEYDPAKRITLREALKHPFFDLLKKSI
Homeodomain-interacting protein kinase 1 (Homo sapiens), sequence (Q86Z02 whole entry, looked up): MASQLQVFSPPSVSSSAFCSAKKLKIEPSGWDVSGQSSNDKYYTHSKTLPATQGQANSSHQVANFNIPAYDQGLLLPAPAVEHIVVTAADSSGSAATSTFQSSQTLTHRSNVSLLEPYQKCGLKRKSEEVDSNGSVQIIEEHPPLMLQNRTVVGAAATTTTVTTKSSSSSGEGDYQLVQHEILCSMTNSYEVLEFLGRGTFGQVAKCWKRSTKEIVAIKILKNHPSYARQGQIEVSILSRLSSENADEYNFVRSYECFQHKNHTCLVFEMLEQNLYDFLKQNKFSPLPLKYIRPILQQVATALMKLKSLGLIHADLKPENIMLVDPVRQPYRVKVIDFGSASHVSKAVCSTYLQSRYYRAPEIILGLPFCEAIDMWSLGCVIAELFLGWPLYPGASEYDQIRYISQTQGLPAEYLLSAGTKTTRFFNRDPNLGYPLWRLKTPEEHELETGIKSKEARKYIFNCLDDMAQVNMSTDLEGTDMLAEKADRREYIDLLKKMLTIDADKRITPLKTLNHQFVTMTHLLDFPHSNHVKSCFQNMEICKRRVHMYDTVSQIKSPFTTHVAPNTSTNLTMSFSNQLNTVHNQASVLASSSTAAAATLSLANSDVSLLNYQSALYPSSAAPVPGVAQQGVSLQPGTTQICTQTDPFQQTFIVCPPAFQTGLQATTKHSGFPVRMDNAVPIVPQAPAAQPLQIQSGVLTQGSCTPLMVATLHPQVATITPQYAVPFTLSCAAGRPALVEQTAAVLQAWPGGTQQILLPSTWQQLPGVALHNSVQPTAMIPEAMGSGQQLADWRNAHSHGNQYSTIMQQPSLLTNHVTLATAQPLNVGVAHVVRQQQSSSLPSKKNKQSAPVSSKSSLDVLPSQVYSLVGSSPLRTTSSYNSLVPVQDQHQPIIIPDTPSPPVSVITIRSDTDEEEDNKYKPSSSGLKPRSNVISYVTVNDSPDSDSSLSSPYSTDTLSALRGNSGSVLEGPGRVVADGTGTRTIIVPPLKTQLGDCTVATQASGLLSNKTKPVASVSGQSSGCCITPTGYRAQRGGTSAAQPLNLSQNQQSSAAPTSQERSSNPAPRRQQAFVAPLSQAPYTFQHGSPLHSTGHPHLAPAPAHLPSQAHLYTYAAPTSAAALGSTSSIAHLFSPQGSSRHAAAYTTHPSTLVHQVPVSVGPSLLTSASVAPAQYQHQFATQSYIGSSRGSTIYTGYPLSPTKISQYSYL

Compound: O=C(Nc1ccc(NC(=O)c2ccccc2F)cc1)Nc1nc2ccc(O)cc2s1
- inhibition [1]: 17%

Compound: O=C(Nc1ccc(NC(=O)c2cccc(C(F)(F)F)c2)cc1)Nc1nc2ccc(O)cc2s1
- inhibition [1]: 14%

Compound: O=C(Nc1ccc(NC(=O)c2ccc(F)cc2)cc1)Nc1nc2ccc(O)cc2s1
- inhibition [1]: 13%

Compound: Cc1cccc(C(=O)Nc2ccc(NC(=O)Nc3nc4ccc(O)cc4s3)cc2)c1
- inhibition [1]: 30%

Compound: O=C(Cc1ccccc1)Nc1ccc(NC(=O)Nc2nc3ccc(O)cc3s2)cc1
- inhibition [2]: 3%
- inhibition [3]: 8%
- inhibition [4]: 6%
- Papp at 16 h [5]: 7.9 ×10⁻⁶ cm/s
- inhibition [6]: 75%
- IC50 [7]: 690 nM
- Activity [8]: Active
- inhibition [9]: 20%
- inhibition [10]: 4%
- IC50 [11]: 20 nM
- inhibition [12]: 21%
- inhibition [13]: 6%
- inhibition [14]: 28%

Compound: N#Cc1cccc(C(=O)Nc2ccc(NC(=O)Nc3nc4ccc(O)cc4s3)cc2)c1
- inhibition [1]: 36%

Compound: O=C(Nc1ccc(NC(=O)c2cccc(Cl)c2)cc1)Nc1nc2ccc(O)cc2s1
- inhibition [1]: 18%

Compound: O=C(Nc1ccc(NC(=O)c2cc(Cl)cc(Cl)c2)cc1)Nc1nc2ccc(O)cc2s1
- inhibition [1]: 11%

Compound: O=C(Nc1ccc(NC(=O)c2c(F)cc(F)cc2F)cc1)Nc1nc2ccc(O)cc2s1
- inhibition [1]: 17%

Compound: CC(=O)Nc1ccc(NC(=O)Nc2nc3ccc(O)cc3s2)cc1
- inhibition [1]: 65%

Compound: O=C(Nc1ccc(NC(=O)C2CC2)cc1)Nc1nc2ccc(O)cc2s1
- inhibition [1]: 29%
- inhibition [6]: 62%
- IC50 [11]: 159 nM

Compound: CN1CCN(C(=O)c2ccc(NC(=O)Nc3nc4ccc(O)cc4s3)cc2)CC1
- IC50 [15]: > 5000 nM
- IC50 [16]: 93 nM

Compound: CCn1cc(C(=O)O)c(=O)c2cc(F)c(N3CCNCC3)cc21 [NORFLOXACIN]
- Papp at 16 h [5]: 1.1 ×10⁻⁶ cm/s

Compound: O=C(Nc1ccc(NC(=O)c2cccc(F)c2)cc1)Nc1nc2ccc(O)cc2s1
- inhibition [1]: 9%

Compound: N#Cc1ccc(C(=O)Nc2ccc(NC(=O)Nc3nc4ccc(O)cc4s3)cc2)cc1
- inhibition [1]: 23%

Compound: O=C(Nc1cccc(NS(=O)(=O)c2cccc(F)c2)c1)Nc1nc2ccc(O)cc2s1
- inhibition [1]: 10%

Compound: O=C(Nc1ccc(NC(=O)c2cc(F)c(F)c(F)c2)cc1)Nc1nc2ccc(O)cc2s1
- inhibition [1]: 10%

Compound: O=C(Nc1ccc(NC(=O)C2CCC2)cc1)Nc1nc2ccc(O)cc2s1
- inhibition [1]: 26%

Compound: COc1ccc2c(c1)[nH]c1c(C)nccc12
- Activity [17]: Active

Compound: O=C(Nc1ccc(NS(=O)(=O)c2cccc(F)c2)cc1)Nc1nc2ccc(O)cc2s1
- inhibition [2]: 3%
- inhibition [18]: 18%
- inhibition [3]: 15%
- inhibition [1]: 15%
- inhibition [4]: 5%
- inhibition [6]: 79%
- inhibition [19]: 2%
- inhibition [20]: 3%
- inhibition [9]: 27%
- inhibition [10]: 4%
- IC50 [11]: 45 nM
- inhibition [12]: 7%
- inhibition [13]: 15%
- inhibition [14]: 29%

Compound: O=C(Nc1ccc(NC(=O)C2CCNCC2)cc1)Nc1nc2ccc(O)cc2s1
- inhibition [1]: 51%
- Papp at 16 h [5]: 4.4 ×10⁻⁶ cm/s
- inhibition [6]: 69%
- Activity [17]: Active
- IC50 [11]: 177 nM

Compound: O=C(Nc1ccc(NC(=O)c2ccccc2)cc1)Nc1nc2ccc(O)cc2s1
- inhibition [1]: 34%
- inhibition [6]: 65%
- IC50 [11]: 154 nM

Compound: O=C(Nc1ccc(NC(=O)c2ccc(Cl)cc2)cc1)Nc1nc2ccc(O)cc2s1
- inhibition [1]: 6%

Compound: O=C(Nc1ccc(NS(=O)(=O)c2ccccc2)cc1)Nc1nc2ccc(O)cc2s1
- inhibition [1]: 18%

Compound: O=C(Nc1ccc(NC(=O)c2cccc(Br)c2)cc1)Nc1nc2ccc(O)cc2s1
- inhibition [1]: 13%

Compound: O=C(Nc1ccc(NC(=O)c2cccc(O)c2)cc1)Nc1nc2ccc(O)cc2s1
- inhibition [1]: 46%
- Papp at 16 h [5]: 6.5 ×10⁻⁶ cm/s
- Activity [21]: Active

Compound: O=C(Nc1ccc(NS(=O)(=O)c2cc(F)cc(F)c2)cc1)Nc1nc2ccc(O)cc2s1
- inhibition [1]: 9%

Compound: O=C(Nc1ccc(NC(=O)C2CCCCC2)cc1)Nc1nc2ccc(O)cc2s1
- inhibition [1]: 25%

Compound: O=C(Nc1ccc(NC(=O)c2cc(F)cc(F)c2)cc1)Nc1nc2ccc(O)cc2s1
- inhibition [1]: 11%

Compound: O=C(Nc1ccc(NS(=O)(=O)c2ccccc2F)cc1)Nc1nc2ccc(O)cc2s1
- inhibition [1]: 19%
